Active and inactive are the calls of the source.
Key:
Large T antigen = Large T antigen (Simian virus 40, UniProt P03070); type: functional, Betapolyomavirus macacae;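 also: Confirmatory-stage PubChem screen for compounds that inhibit SV40 T antigen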
[1] = molecular target: Induced myeloid leukemia cell differentiation protein Mcl-1 (Homo sapiens, UniProt Q07820); type: functional
[2] = molecular target: Intestinal-type alkaline phosphatase (Homo sapiens, UniProt P09923); test: Dose Response confirmation of uHTS hits from a small molecule inhibitors of human intestinal alkaline phosphatase via a luminescent assay. [Related pubchem assays (depositor defined):AID2544, AID2574]; type: functional
Albumin = Albumin (Bos taurus, UniProt P02769); test: Counterscreen for inhibitors of T-cell receptor (TCR)-CD3 interaction: Fluorescence-based biochemical high throughput dose response assay to identify inhibitors of T-cell receptor (TCR)-CD3 interaction using a TAMRA-labeled BSA probe.; type: functional
Caspase-6 = Caspase-6 (Homo sapiens, UniProt P55212); test: human caspase-6 inhibitors, dose response, biochemical, VEID-R110 fluorescence, cherry-pick (AID 720632)
Caspase-7 = Caspase-7 (Homo sapiens, UniProt P55210); test: human caspase-7 inhibitors, dose response, selectivity assay for caspase-6 inhibitor project, biochemical, DEVD-R110 fluorescence, cherry-pick (AID 743295)
Caspase-8 = Caspase-8 (Homo sapiens, UniProt Q14790); test: caspase-8 inhibition counter-screen, dose response, selectivity assay for caspase-6 inhibitor project, biochemical, Z-IETD-R110 fluorescence, cherry-picked samples (AID 743294)
Caspase-3 = molecular target: T1, Caspase-3 (Homo sapiens, UniProt P42574); test: caspase-3 enzyme inhibitors, selectivity check, dose response, selectivity assay for caspase-6 allosteric inhibitor project, biochemical, fluorescence, cherry-picked samples (AID 743291)
T1 sequence (P42574 whole entry): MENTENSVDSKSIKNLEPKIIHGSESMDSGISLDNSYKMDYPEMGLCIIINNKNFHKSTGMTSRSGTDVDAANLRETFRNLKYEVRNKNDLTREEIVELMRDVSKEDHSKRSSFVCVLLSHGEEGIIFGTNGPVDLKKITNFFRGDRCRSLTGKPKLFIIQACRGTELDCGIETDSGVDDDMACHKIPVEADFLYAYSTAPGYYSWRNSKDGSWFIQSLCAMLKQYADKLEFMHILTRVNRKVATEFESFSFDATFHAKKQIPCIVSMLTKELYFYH

[3] = tested on: Streptococcus sp. 'group A'; test: growth inhibition of control SK(-) GAS strain, dose response, counter-screen for streptokinase expression inhibitor project, luminescence, kanamycin, BacTiterGlo, confirmation (AID 1900); type: functional, organism-based
Streptokinase A = molecular target: T2, Streptokinase A (Streptococcus pyogenes serotype M1, UniProt P10520); test: S. pyogenes streptokinase expression inhibitors, potency, dose response, plasminogen activation absorbance, OD405 (AID 1914); type: functional, Streptococcus pyogenes M1 GAS;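 also: secreted streptokinase activity via plasminogen activation per viability signal from cell pellet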
T2 sequence (P10520 whole entry): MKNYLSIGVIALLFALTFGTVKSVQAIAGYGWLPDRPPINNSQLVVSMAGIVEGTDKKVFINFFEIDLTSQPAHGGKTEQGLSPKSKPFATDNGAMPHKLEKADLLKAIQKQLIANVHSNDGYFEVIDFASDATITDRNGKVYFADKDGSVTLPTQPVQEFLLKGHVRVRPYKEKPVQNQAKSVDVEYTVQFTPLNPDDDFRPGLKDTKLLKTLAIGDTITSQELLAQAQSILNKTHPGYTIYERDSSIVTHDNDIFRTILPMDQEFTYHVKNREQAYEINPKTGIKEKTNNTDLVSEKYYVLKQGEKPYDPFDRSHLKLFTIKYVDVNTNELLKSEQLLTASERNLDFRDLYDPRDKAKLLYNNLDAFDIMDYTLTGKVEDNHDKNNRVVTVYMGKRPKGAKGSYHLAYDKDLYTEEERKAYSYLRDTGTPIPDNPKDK

Streptococcus = test: Group A Streptococcus viability loss, dose response, counter-screen for streptokinase expression inhibitor project, luminescence, BacTiterGlo (AID 1915); type: functional, organism-based;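 also: potency for reduction of bacterial viability or growth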
X-box-binding protein 1 = X-box-binding protein 1 (Homo sapiens, UniProt P17861); type: functional, Cricetulus griseus;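 also: confirmatory dose-response counter-screen serving a CHOP assay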
Salmon testes DNA = test: DNA intercalators displacing acridine orange, dose response, artefact control for KSHV LANA DNA-binding inhibitor project, biochemical, fluorescence polarization, cherry-picked samples, set 2 (AID 504727); design: species or system Salmonidae
ORF 73 = ORF 73 (Human herpesvirus 8, UniProt O40947); test: inhibitors of C-LANA binding to LBS DNA, dose response, biochemical, fluorescence polarization, cherry-picked samples (AID 504725); design: species or system Human gammaherpesvirus 8;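 also: fluorescence polarization of a labeled DNA duplex reporting LANA DNA binding; potency is for inhibitors that block LANA binding to the DNA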
[4] = CFTR ΔF508 corrector activity in bronchial cells, dose response, human bronchial epithelial cells, plate reader, cherry-pick, two tests (AID 743267); type: functional, cell-based
Leucine aminopeptidase = molecular target: T3, Leucine aminopeptidase (Plasmodium falciparum 3D7, UniProt Q8IL11); test: P. falciparum M17LAP inhibitors, primary screen, biochemical, fluorogenic H-Leu-NHMec substrate, 1536-well (AID 1619); type: functional
T3 sequence (Q8IL11 whole entry): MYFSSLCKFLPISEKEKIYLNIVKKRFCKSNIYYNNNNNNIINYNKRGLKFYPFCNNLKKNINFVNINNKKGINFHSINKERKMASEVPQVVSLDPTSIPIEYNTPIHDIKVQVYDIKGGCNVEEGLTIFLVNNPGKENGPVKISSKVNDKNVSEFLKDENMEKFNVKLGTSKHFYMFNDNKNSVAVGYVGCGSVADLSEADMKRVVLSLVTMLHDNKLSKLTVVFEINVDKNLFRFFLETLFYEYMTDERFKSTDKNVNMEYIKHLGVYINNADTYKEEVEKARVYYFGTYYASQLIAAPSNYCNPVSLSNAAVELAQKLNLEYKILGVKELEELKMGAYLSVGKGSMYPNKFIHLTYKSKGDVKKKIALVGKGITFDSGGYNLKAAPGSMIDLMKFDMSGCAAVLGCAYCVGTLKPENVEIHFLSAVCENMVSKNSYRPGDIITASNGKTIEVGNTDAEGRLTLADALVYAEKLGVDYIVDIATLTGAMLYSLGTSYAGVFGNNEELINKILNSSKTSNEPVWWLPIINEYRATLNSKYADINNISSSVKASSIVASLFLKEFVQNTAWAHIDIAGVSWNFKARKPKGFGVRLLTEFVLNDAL

Aminopeptidase N = molecular target: T4, Aminopeptidase N (Plasmodium falciparum FcB1/Columbia, UniProt O96935); test: P. falciparum M1AAP inhibitors, biochemical, fluorogenic H-Leu-NHMec substrate, 1536-well (AID 1445); design: species or system Plasmodium falciparum 3D7, 3D7
T4 sequence (O96935 whole entry): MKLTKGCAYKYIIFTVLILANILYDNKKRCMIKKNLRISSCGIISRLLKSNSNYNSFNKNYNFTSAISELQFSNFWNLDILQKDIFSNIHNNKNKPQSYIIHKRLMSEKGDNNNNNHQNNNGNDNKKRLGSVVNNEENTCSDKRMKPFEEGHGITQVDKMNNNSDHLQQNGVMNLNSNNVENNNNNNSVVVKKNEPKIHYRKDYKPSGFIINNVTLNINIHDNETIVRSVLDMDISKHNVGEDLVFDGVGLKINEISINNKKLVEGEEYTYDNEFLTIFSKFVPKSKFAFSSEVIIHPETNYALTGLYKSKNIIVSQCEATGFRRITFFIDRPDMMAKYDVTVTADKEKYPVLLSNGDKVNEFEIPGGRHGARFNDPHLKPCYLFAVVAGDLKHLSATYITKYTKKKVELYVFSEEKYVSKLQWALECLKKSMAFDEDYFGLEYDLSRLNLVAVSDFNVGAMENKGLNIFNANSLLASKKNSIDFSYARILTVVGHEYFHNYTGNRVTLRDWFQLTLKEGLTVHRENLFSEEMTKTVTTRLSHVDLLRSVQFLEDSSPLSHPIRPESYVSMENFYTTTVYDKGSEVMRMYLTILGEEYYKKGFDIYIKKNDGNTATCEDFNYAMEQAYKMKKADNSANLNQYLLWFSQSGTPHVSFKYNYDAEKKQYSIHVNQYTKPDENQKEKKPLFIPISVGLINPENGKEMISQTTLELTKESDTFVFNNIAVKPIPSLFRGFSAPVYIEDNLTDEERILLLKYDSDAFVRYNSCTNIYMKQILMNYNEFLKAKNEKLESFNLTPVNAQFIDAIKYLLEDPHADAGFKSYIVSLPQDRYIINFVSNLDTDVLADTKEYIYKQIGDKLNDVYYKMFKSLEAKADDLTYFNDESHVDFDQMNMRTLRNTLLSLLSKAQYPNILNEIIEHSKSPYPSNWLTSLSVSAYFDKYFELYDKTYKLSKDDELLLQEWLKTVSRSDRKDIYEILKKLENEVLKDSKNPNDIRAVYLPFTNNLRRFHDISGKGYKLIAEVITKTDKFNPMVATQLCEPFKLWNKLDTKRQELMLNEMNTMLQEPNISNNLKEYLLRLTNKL

[5] = microbe, parasite or virus in culture; type: functional; conditions: Mycobacterium tuberculosis
[6] = molecular target: Tyrosine-protein phosphatase non-receptor type 7 (Homo sapiens, UniProt P35236); test: Dose Response confirmation of compounds that inhibit HePTP. [Related pubchem assays (depositor defined):AID1059, AID1661, AID2085]; type: functional
[7] = molecular target: Dual specificity protein phosphatase 3 (Homo sapiens, UniProt P51452); test: Dose Response Confirmation of compounds that inhibit VHR1 in Fluorescent Assay. [Related pubchem assays (depositor defined):AID1661, AID1878]; type: functional
Tumor necrosis factor = Tumor necrosis factor (Homo sapiens, UniProt P01375); test: TNFa-triggered NF-kB activation inhibitors, SAR follow-up, cell-based, revised (AID 2337); type: functional
[8] = molecular target: T5, Nucleotide-binding oligomerization domain-containing protein 1 (Homo sapiens, UniProt Q9Y239); test: NOD1 signaling inhibitors, SAR follow-up, revised (AID 2333); type: functional
T5 sequence (Q9Y239 whole entry): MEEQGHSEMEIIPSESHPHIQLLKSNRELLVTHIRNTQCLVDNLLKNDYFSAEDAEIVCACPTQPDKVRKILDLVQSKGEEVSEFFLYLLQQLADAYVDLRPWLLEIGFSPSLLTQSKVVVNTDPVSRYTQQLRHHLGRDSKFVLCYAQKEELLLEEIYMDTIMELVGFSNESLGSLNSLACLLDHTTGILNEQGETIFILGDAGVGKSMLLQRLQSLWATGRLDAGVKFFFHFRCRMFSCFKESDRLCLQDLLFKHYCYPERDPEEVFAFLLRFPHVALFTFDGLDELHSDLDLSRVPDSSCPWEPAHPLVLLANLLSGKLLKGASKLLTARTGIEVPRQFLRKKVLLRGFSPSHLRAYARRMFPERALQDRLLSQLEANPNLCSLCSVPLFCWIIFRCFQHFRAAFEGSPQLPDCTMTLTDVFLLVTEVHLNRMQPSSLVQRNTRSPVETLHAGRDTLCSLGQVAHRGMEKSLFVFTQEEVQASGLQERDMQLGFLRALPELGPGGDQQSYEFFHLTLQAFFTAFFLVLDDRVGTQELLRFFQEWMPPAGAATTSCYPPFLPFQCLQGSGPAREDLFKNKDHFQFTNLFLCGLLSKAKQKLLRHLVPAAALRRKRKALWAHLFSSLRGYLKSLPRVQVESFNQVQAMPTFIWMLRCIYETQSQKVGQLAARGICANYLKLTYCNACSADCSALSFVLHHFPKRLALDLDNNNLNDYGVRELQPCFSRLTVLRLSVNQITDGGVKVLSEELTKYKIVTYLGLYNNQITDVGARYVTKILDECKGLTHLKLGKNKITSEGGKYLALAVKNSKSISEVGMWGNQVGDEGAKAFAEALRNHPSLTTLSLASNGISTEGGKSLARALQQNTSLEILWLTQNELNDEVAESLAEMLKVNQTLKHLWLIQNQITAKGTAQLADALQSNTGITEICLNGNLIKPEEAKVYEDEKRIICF

[9] = molecular target: Nucleotide-binding oligomerization domain-containing protein 2 (Homo sapiens, UniProt Q9HC29); test: PubChem AID 2334; type: functional
HEK293 = test: cells; conditions: Homo sapiens
J774.A1 = test: Confirmation of image-based Screening Assay for Inhibitors of Phagocytosis. [Related pubchem assays (depositor defined):AID1029, AID1643]; type: functional, cell-based; conditions: Mus musculus
[10] = cytotoxicity in HEK-293T cells, dose response, cytotoxicity control for TCR NF-kB inhibitor project, luminescence, T-cell screen hits (AID 489026); type: functional, cell-based;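 also: cells exposed to compound about 14 hours before the viability readout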
[11] = molecular target: Cystic fibrosis transmembrane conductance regulator/Golgi-associated PDZ and coiled-coil motif-containing protein (Homo sapiens, UniProt P13569+Q9HD26); test: CAL PDZ peptide-binding inhibitors, dose response, biochemical, fluorescence polarization, Cerulean-tagged CAL PDZ, cherry-picks (AID 504773)

Sequence of Albumin (P02769 whole entry): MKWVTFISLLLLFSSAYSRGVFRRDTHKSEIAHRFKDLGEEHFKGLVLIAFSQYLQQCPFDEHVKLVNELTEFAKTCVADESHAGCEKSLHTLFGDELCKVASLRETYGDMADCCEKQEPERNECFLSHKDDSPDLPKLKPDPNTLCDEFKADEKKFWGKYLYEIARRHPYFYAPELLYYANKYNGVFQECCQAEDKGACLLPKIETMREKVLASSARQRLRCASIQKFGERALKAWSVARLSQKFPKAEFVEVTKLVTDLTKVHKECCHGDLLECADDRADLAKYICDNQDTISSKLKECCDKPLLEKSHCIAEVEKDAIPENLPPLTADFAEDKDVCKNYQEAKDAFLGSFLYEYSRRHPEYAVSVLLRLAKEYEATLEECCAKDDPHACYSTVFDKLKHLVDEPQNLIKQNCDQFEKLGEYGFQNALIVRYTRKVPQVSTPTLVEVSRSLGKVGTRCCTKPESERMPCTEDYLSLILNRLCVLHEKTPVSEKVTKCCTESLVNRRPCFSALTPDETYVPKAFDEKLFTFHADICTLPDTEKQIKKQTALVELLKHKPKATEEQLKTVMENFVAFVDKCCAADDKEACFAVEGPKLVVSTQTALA
Sequence of Large T antigen (P03070 whole entry): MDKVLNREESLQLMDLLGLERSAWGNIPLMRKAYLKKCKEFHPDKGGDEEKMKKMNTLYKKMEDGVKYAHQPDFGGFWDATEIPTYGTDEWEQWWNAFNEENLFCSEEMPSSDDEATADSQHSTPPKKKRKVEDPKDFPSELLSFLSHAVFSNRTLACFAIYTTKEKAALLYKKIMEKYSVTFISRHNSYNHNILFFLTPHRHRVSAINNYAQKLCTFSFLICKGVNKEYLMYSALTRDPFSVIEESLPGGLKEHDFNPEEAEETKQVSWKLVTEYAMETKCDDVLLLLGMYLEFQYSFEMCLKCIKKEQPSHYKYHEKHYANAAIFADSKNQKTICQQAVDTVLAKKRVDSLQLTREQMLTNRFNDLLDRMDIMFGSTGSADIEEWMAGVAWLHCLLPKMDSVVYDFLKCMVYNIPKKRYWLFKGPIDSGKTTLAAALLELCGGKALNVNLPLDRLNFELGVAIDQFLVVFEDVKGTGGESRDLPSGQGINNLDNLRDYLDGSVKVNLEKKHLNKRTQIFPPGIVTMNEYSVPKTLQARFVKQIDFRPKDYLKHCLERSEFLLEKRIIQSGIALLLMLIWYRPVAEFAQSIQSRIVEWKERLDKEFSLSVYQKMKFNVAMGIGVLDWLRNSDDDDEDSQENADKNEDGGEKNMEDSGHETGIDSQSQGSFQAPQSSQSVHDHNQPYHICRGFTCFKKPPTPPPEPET
Sequence of Nucleotide-binding oligomerization domain-containing protein 2 (Q9HC29 whole entry, the tested form may be a part): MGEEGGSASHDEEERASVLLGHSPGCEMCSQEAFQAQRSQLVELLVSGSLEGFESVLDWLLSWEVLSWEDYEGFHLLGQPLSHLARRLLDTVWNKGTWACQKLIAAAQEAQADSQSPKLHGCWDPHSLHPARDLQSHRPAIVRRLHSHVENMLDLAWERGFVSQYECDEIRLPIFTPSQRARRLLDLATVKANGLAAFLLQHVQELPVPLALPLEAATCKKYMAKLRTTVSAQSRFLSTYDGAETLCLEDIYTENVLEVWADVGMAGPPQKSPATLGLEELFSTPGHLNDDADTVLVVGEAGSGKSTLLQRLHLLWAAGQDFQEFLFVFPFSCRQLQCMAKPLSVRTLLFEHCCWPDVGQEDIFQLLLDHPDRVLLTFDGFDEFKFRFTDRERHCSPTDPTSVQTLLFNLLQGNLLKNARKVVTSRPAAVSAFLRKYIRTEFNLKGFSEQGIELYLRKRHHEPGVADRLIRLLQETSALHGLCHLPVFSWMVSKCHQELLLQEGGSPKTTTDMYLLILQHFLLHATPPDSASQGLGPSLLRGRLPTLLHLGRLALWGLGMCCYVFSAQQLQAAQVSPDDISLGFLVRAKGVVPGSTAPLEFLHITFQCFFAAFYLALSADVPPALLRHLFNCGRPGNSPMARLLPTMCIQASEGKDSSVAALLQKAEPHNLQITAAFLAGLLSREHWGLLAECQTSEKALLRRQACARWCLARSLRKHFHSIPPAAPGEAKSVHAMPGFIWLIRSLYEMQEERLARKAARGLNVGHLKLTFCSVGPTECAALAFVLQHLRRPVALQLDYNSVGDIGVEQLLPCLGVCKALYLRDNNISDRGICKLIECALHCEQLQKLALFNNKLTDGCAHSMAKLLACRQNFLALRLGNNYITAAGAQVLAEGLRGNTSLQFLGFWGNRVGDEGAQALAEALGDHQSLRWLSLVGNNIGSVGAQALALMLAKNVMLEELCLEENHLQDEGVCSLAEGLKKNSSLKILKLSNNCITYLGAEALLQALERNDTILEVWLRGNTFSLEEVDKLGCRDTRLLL
Sequence of ORF 73 (O40947 whole entry): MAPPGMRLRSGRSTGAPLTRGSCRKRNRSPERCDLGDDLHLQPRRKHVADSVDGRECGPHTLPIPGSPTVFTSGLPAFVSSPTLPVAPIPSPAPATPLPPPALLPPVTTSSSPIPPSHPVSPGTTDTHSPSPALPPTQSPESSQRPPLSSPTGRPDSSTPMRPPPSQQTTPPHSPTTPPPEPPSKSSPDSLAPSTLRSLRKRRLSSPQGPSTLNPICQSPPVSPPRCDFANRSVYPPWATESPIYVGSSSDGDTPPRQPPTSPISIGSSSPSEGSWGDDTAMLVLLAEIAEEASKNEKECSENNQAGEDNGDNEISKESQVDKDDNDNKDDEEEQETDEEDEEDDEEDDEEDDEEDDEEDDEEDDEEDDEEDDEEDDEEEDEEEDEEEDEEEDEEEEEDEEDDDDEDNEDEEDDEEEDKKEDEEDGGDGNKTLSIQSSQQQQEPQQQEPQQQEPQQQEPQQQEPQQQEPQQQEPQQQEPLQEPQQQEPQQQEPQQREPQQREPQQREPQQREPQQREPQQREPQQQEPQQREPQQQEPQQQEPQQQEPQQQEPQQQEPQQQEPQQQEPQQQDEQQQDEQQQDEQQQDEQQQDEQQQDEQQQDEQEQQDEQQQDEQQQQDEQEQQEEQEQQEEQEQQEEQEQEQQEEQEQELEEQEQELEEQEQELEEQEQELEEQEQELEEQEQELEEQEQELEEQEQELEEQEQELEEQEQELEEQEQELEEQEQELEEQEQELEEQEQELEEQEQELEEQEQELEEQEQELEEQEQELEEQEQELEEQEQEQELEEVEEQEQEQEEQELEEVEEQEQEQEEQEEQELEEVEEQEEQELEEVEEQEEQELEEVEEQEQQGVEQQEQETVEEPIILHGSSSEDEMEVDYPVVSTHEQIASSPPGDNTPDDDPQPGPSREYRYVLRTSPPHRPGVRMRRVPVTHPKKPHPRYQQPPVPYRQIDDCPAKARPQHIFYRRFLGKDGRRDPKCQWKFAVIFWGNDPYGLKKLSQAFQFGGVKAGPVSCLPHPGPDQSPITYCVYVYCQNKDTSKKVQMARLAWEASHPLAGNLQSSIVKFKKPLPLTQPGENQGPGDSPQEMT
Sequence of Induced myeloid leukemia cell differentiation protein Mcl-1 (Q07820 whole entry): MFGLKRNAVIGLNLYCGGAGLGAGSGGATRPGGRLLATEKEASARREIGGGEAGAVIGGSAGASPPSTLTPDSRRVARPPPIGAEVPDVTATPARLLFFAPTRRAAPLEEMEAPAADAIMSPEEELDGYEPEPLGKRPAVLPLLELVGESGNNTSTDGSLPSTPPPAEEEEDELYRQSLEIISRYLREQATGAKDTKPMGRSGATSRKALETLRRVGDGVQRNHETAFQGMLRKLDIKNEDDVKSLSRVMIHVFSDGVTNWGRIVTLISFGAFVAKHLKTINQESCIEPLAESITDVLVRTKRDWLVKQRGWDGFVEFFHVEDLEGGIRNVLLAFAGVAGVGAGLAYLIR
Sequence of Tyrosine-protein phosphatase non-receptor type 7 (P35236 whole entry): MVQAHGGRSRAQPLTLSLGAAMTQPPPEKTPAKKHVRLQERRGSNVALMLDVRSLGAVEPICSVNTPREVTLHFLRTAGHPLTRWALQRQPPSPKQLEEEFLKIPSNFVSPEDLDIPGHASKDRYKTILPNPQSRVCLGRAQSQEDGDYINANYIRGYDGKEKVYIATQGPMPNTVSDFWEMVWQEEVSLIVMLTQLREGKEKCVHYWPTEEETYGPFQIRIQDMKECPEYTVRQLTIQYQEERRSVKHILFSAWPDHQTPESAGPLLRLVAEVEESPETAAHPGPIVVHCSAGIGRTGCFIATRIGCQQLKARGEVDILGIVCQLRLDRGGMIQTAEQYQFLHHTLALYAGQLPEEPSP
Sequence of Tumor necrosis factor (P01375 whole entry, the tested form may be a part): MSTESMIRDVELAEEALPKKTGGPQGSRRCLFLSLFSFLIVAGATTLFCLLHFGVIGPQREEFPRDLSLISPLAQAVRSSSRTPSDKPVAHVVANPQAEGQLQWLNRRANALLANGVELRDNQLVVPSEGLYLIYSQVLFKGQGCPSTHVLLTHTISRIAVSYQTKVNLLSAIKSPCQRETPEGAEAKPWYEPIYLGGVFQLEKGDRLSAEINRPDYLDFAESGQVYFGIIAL
Sequence of Intestinal-type alkaline phosphatase (P09923 whole entry): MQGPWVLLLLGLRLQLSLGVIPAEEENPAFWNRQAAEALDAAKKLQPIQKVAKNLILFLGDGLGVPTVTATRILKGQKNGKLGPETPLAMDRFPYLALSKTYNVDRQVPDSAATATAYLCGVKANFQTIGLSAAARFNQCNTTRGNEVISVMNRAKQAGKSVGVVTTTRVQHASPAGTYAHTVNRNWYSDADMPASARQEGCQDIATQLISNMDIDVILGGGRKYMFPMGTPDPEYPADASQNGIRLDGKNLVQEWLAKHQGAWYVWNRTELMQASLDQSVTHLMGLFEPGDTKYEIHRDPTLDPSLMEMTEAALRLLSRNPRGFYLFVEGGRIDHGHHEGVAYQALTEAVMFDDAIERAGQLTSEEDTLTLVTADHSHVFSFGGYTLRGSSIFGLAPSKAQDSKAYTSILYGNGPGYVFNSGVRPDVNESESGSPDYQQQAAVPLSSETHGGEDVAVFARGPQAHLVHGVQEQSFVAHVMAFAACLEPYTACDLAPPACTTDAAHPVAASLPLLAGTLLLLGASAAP

## O=c1oc2ccccc2c2oc3cc(O)c(O)cc3c12
Large T antigen
  IC50: 6.52 µM (active)
[1]
  IC50: 6.69 µM (active)
[2]
  IC50: 3.52 µM (active)
Albumin
  IC50: > 94.2 µM (inactive)
Caspase-6
  AC50: 4.48 µM (active)
Caspase-7
  AC50: 59.8 µM (active)
Caspase-8
  AC50: > 70 µM (inactive)
Caspase-3
  AC50: 22.1 µM (active)

## Cc1cccc(NCC(=O)N/N=C\c2cccc(Oc3ccccc3)c2)c1
[3]
  EC50: > 150 µM (not active)
Streptokinase A
  EC50: > 150 µM (not active)
Streptococcus
  EC50: > 150 µM (not active)
X-box-binding protein 1
  Absolute IC50 (XBP1): 10 µM

## CN1C(=O)/C(=N\C2CCCCC2)c2c3ccccc3c(O)c3cccc1c23
Salmon testes DNA
  AC50: 101 µM (active)
ORF 73
  AC50: 77.3 µM (active)
[4]
  AC50: 8.48 µM (active)

## Cc1csc(NC(=O)CCCC(=O)O)c1-c1nc2ccccc2s1
Leucine aminopeptidase
  IC50: 35.4 µM (active)
Aminopeptidase N
  IC50: 11.2 µM (active)
[5]
  CC50: > 40 µM (active)
[6]
  IC50: 3.28 µM (active)
[7]
  IC50: 2.67 µM (active)

## O=C(NC(=S)Nc1sc2c(c1C(=O)O)CCCC2)c1ccccc1
Tumor necrosis factor
  IC50: 15.5 µM (active)
[8]
  IC50: 14.4 µM (active)
[9]
  IC50: 17.3 µM (active)
HEK293
  IC50: > 20 µM (inactive)

## CCOc1ccc2c(c1)sc(N)[n+]2Cc1cc(C)cc2cccnc12
J774.A1
  IC50: 0.229 µM (active)
[10]
  IC50: > 80 µM (inactive)

## c1ccc(C(Nc2cccnc2)c2ccccc2)cc1
[11]
  AC50: 33 µM (active)
